The assay relates to 1csc colony cells obtained from MDA-MB-231 cells. Put plainly: In vitro cell viability after drug treatment (CCK-8). The following applies: 1csc colony cells versus cells from 2Dcells, Ucells and Mcells cultures; 24 hours treatment; FIG. 6A-6B. It is filed as cell-based, human. On the procedure:
For 2Dcells culture, human MDA-MB-231, MCF-7, PC-3, and OVCAR-8 cancer cells were cultured in Corning (Lowell, MA, USA) T75 flasks in DMEM, EMEM, F12K, and RPMI-1640 medium supplemented with 10% FBS and 1% penicillin/streptomycin at 37° C. in a humidified 5% CO2 incubator, respectively. For Ucells culture, cells were cultured in Corning (Lowell, MA, USA) 6-well ultralow attachment plate (ULAP) at a density of 20,000 cells ml^−1 in CSC medium consisting of serum-free DMEM/F12 supplemented with 5 μg ml^−1 insulin, 20 ng ml^−1 epidermal growth factor (EGF), 20 ng ml^−1 basic fibroblast growth factor (bFGF), 1×B27 (Invitrogen, Carlsbad, CA, USA), 0.4% (w v^−1) bovine serum albumin, 100 U ml^−1 penicillin, and 100 μg ml^−1 streptomycin. The cell spheroids or aggregates were collected after 7 days for further experiments. For lcsc and Mcells cultures, microcapsules encapsulated with one (for 1csc) or multiple (for Mcells) cells were cultured in the aforementioned CSC medium. To determine viability of cells under 2Dcells culture, cells were transferred into 96-well plates first. […] The cell viability was then evaluated using the CCK-8 cell proliferation reagent per the manufacturer's instructions. Cell viability was calculated as the ratio of the cell number determined for each group with a treatment to that of control group with no treatment.

Counter-ions that a name gives are not always drawn.

In the case of `CCc1c2c(nc3ccc(OC(=O)N4CCC(N5CCCCC5)CC4)cc13)-c1cc3c(c(=O)n1C2)COC(=O)[C@]3(O)CC` [CPT-11, Irinotecan/camptothecin-11], the “resistance of the 1csc colony cells to the drug (cell viability)” value is listed as “significantly more resistant”.

Consider `COc1cccc2c1C(=O)c1c(O)c3c(c(O)c1C2=O)C[C@@](O)(C(=O)CO)C[C@@H]3O[C@H]1C[C@H](N)[C@H](O)[C@H](C)O1` [DOX, Doxorubicin hydrochloride], for which the “resistance of the 1csc colony cells to the drug (cell viability)” value is on record as “significantly more resistant”.
